Data set [1] relates to HIV-1. To be noted: cited from earlier work.
Data set [2] concerns HIV replication in macrophages. Also noted: method as in PMID 25889234. The following applies: in vitro; cited from earlier work.
Data set [3] is described as follows: Plasma pharmacokinetics of ABX464 and ABX464-NGlc in HIV-infected subjects. It is filed as in vivo, human. The procedure: Plasma samples were analyzed for ABX464 and ABX464-NGlc using validated bioanalytical methods by Atlanbio (Saint Nazaire, France) according to good laboratory practices. Pharmacokinetic parameters were calculated by noncompartmental analysis (NCA), using Phoenix WinNonlin software (Pharsight Corporation) running on a personal computer. On day 1, the following PK parameters were generated: Cmax, the time to Cmax (Tmax), lag time (tlag), elimination rate constant (kel), area under the concentration-time curve (AUC) from time zero to time t (AUC0–t), AUC from time zero to infinity (AUC0–∞), apparent clearance (CL/F), and apparent volume of distribution (V/F). On the other days of PK assessment, only Cmax, Tmax, tlag, kel, and AUC0–t were generated. The secondary analysis concerned pharmacodynamic (PD) activity, as expressed by CD4 and CD8 levels and viral load across time. The HIV viral load was analyzed in the prequalified individual local study center laboratories. CD4 and CD8 cell counts were also determined in the local study center laboratories. With respect to the viral load, changes in the log-transformed viral load values between 24 h postdose and predose were calculated on each day, and a comparison between each dose level and pooled placebo data was made. Moreover, the rate of success (defined as a decrease in the viral load value of at least 0.5 log) was evaluated for each treatment (including placebo) and compared between treatments.

Data set [4] relates to HIV replication in PBMCs. Also noted: method as in PMID 25889234. The following applies: in vitro; cited from earlier work.

Each structure is given as a SMILES string.

As to `Cn1cc(-c2cccc3cc(C(=O)N=C(N)N)ccc23)cn1`, in data set [1] (10 days of treatment), the “Decrease in mean total HIV-1 DNA copy number in monocytes” value was 2.7 fold and the “Reduction in mean total HIV-1 DNA copy number in monocytes” value was 63%. Besides, in data set [1], the “Effect on HIV viral load in plasma or CD4 T cell count” value was “no significant effect” and the “Treated individuals with significant reductions in total HIV-1 DNA levels within monocytes” value is “three of the six”.
In the case of `O=C(O)[C@H]1O[C@@H](N(c2ccc(OC(F)(F)F)cc2)c2ccc3cccc(Cl)c3n2)[C@H](O)[C@@H](O)[C@@H]1O` [ABX464-NGlc, ABX464-N-glucuronide], in data set [2], the “50% inhibitory concentration in macrophage culture relative to parent drug” value is given as “same 50% inhibitory concentration as the parent drug” and the “Inhibition of HIV replication in macrophage culture” value is reported as “able to inhibit HIV replication”. For the same molecule, the “half-life (t1/2)” value in data set [3] (HIV-infected subjects, oral) is given as “about 100 h”. Besides, the “Bioavailability of ABX464-NGlc in human subjects relative to mice” value in data set [3] (human, in vivo) is “approximately 15 fold”. Further, the “Cmax of the metabolite relative to that of the parent compound” value in data set [3] (plasma) is given as “approximately 160 fold”. The “Antiviral effect on HIV replication in PBMCs” value in data set [4] was “no antiviral effect”.

(Values after PMC5487684, “Safety, Pharmacokinetics, and Antiviral Activity of a Novel HIV Antiviral, ABX464, in Treatment-Naive HIV-Infected Subjects in a Phase 2 Randomized, Controlled Study” (Antimicrobial Agents and Chemotherapy, 2017).)
